Assay results: patent US20260327243A1, “SPIRO-HETEROCYCLIC INHIBITORS OF KRAS G12C MUTANT PROTEINS AND USES THEREOF” (AMGEN INC., priority 2023, published 2026)

Experiments:
[1] = biological target: KRAS^G12C (Homo sapiens, UniProt P01116, C118A/G12C); experiment: Coupled Nucleotide Exchange Assay; assay type: biochemical; conditions: GDP-bound KRAS (aa 1-169) G12C/C118A; 2 h compound pre-incubation; SOS-mediated exchange, 30 min; cRAF binding (AlphaLISA)
Outline: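 GDP-bound His-tagged KRAS aa 1-169 (G12C/C118A) pre-incubated 2 h with compound in 25 mM HEPES pH 7.4, 10 mM MgCl2, 0.01% Triton X-100 (±0.1% BSA), then SOS (aa 564-1049) plus GTP added for 30 min. GST-cRAF RBD binding read by AlphaLISA; DMSO-normalized, 4-parameter fit gives IC50.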

[2] = system: A549 cells; experiment: Cell Viability Assay, A549; assay type: cell-based; conditions: A549; human lung carcinoma; 72 h; CellTiter-Glo
Procedure: (§1) MIA PaCa-2 (human pancreatic carcinoma; ATCC CRL-1420) or A549 (human lung carcinoma; ATCC CCL-185) cells were cultured in RPMI 1640 medium containing 10% fetal bovine serum and 1×penicillin/streptomycin/L-glutamine. Cells were seeded in 384-well plates at a density of 1.67E+04 cells/mL and incubated at 37° C., 5% CO2, overnight. Serially-diluted compound or DMSO was added to the cells, and plates were incubated at 37° C., 5% CO2 for 72 h. Cell viability was measured using a CellTiter-Glo® Luminescent Cell Viability Assay kit (Promega) according to the manufacturer's protocol. The luminescence signal of treated samples was normalized to DMSO control, and data were analyzed using a 4-parameter logistic model to calculate IC50 values.
(§2) The following data (Table 3) categorizes the IC50 of each compound for inhibiting enzymatic activity of KRAS^G12C in the indicated cells.

[3] = system: MIA PaCa-2 cells; experiment: Cell Viability Assay, MIA PaCa-2; assay type: cell-based; conditions: Homo sapiens, MIA PaCa-2, 72 h, human pancreatic carcinoma, CellTiter-Glo
Procedure: as §1, §2

Sequence of KRAS^G12C (P01116 1-169 isoform P01116-2 G12C/C118A): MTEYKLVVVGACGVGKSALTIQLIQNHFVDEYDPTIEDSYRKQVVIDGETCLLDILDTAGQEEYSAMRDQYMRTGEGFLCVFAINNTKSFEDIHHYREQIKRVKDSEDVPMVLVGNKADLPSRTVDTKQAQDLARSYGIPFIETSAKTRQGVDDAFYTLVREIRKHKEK

SMILES	IC50 [1] [nM]	IC50 [2] [nM]	IC50 [3] [nM]
C=CC(=O)N1CCN([C@@H]2CN(c3cc(N4CCC5(CC4)C(=O)C4(COC4)c4nccc(C)c45)nc(C(F)(F)F)n3)[C@@H]2C)CC1 [Compound 3-099, 4′-methyl-1″-(6-((2R,3R)-2-methyl-3-(4-(2-propenoyl)-1-piperazinyl)-1-azetidinyl)-2-(trifluoromethyl)-4-pyrimidinyl)dispiro[oxetane-3,7′-cyclopenta[b]pyridine-5′,4″-piperidin]-6′-one]	41	> 5000	165
C=CC(=O)N1CCN([C@@H]2CN(c3cc(N4CCC5(CC4)OC4(COC4)c4nccc(C)c45)nc(C(F)(F)F)n3)[C@@H]2C)CC1 [Compound 3-102, 1-(4-((2R,3R)-2-methyl-1-(6-(4′-methyl-1″H-dispiro[oxetane-3,7′-furo[3,4-b]pyridine-5′.4″-piperidin]-1″- yl)-2-(trifluoromethyl)-4-pyrimidinyl)-3-azetidinyl)-1-piperazinyl)-2-propen-1-one]	23	> 5000	77
C=CC(=O)N1CCN(C2CN(c3cc(N4CCC5(CC4)OCC=C5C)nc(C(F)(F)F)c3C#N)C2)CC1 [Compound 3-051, 4-(3-(4-Acryloylpiperazin-1-yl)azetidin-1-yl)-6-(4-methyl-1-oxa-8-azaspiro[4.5]dec-3-en-8-yl)-2-(trifluoromethyl)nicotinonitrile]	102	> 5000	284
C=CC(=O)N1CCN([C@@H]2CN(c3cc(N4CCC5(CC4)OC(C)(C)c4nccc(C)c45)nc(C(F)(F)F)n3)[C@@H]2C)CC1 [Compound 3-095]	31	> 5000	159
C=CC(=O)N1CCN([C@@H]2CN(c3cc(N4CCC5(CC4)OCCC5=C)nc(C(F)(F)F)n3)[C@@H]2C)CC1 [Compound 3-074, 1-(4-((2R,3R)-2-Methyl-1-(6-(4-methylene-1-oxa-8-azaspiro[4.5]decan8-yl)-2-(trifluoromethyl)pyrimidin-4-yl)azetidin-3-yl)piperazin-1-yl) prop-2-en-1-one]	423	> 5000	1160
C=CC(=O)N1CCN([C@@H]2CN(c3cc(N4CC[C@]5(C[C@H]4C)OC[C@H](CO)n4ncc(C)c45)nc(C(F)F)n3)[C@@H]2C)CC1 (single isomer, unassigned) [Compound 3-088-2]	72	> 5000	128
C=CC(=O)N1CCN([C@@H]2CN(c3cc(N4CC[C@]5(C[C@H]4C)OC[C@H](COC)n4ncc(C)c45)nc(C(F)(F)F)n3)[C@@H]2C)CC1 (single isomer, unassigned) [Compound 3-089-1]	42	> 5000	102
C=CC(=O)N1CCN([C@@H]2CN(c3cc(N4CCC5(CC4)OCC=C5C)nc(C(F)F)c3C)[C@@H]2C)CC1 [Compound 3-057, 1-(4-((2R,3R)-1-(2-(Difluoromethyl)-3-methyl-6-(4-methyl-1-oxa-8-azaspiro[4.5]dec-3-en-8-yl)pyridin-4-yl)-2-methylazetidin-3-yl)piperazin-1-yl) prop-2-en-1-one]	288	> 5000	272
C=CC(=O)N1CCN([C@@H]2CN(c3cc(N4CCC5(CC4)OC4(COC4)c4nccc(C)c45)nc(C(F)F)n3)[C@@H]2C)CC1 [Compound 3-103, 1-(4-((2R,3R)-1-(2-(difluoromethyl)-6-(4′-methyl-1″H-dispiro[oxetane-3,7′-furo[3,4-b]pyridine-5′,4″- piperidin]-1″-yl)-4-pyrimidinyl)-2-methyl-3-azetidinyl)-1-piperazinyl)-2-propen-1-one]	36	> 5000	171

The remaining lines, values ahead:

IC50 [1] [nM]	IC50 [2] [nM]	IC50 [3] [nM]	SMILES
512	> 5000	832	C=CC(=O)N1CCN([C@@H]2CN(c3cc(N4CCC5(C[C@H]4C)OCC=C5C)nc(C(F)F)n3)[C@@H]2C)CC1 (stereo partly drawn) [Compound 3-003, 1-(4-((2R,3R)-1-(2-(Difluoromethyl)-6-((7R)-4,7-dimethyl-1-oxa-8-azaspiro[4.5]dec-3-en-8-yl)pyrimidin-4-yl)-2-methylazetidin-3-yl)piperazin-1-yl) prop-2-en-1-one]
106	> 5000	189	C=CC(=O)N1CCN([C@@H]2CN(c3cc(N4CC[C@]5(C[C@H]4C)OC[C@@H](CO)n4ncc(C)c45)nc(C(F)F)n3)[C@@H]2C)CC1 (single isomer, unassigned) [Compound 3-088-1]
52	> 5000	175	C=CC(=O)N1CCN([C@@H]2CN(c3cc(N4CCC5(CC4)OCCc4nccc(C)c45)nc(C(F)(F)F)n3)[C@@H]2C)CC1 [Compound 3-094, 1-(4-((2R,3R)-2-methyl-1-(6-(4′-methyl-7′,8′-dihydro-1H-spiro[piperidine-4,5′-pyrano[4.3-b]pyridin]-1-yl)-2-(trifluoromethyl)-4-pyrimidinyl)-3-azetidinyl)-1-piperazinyl)-2-propen-1-one]
107	> 5000	271	C=CC(=O)N1CCN([C@@H]2CN(c3cc(N4CCC5(CC4)c4c(C)ccnc4C4(COC4)C5F)nc(C(F)(F)F)n3)[C@@H]2C)CC1 (stereo partly drawn) [Compound 3-093, 1-(4-((2R,3R)-1-(6-(6′-fluoro-4′-methyl-1″H-dispiro[oxetane-3,7′-cyclopenta[b]pyridine-5′,4″- piperidin]-1″-yl)-2-(trifluoromethyl)-4-pyrimidinyl)-2-methyl-3-azetidinyl)-1-piperazinyl)-2-propen-1-one]
184	> 5000	626	C=CC(=O)N1CCN([C@@H]2CN(c3cc(N4CCC5(C[C@H]4C)OCC=C5C)nc(C(F)(F)F)n3)[C@@H]2C)CC1 (stereo partly drawn) [Compound 3-005, 1-(4-((2R,3R)-1-(6-(4.7-dimethyl-1-oxa-8-azaspiro[4.5]dec-3-en-8-yl)-2-(trifluoromethyl)pyr-imidin-4-yl)-2-methylazetidin-3-yl)piperazin-1-yl)prop-2-en-1-one]
81	> 5000	180	C=CC(=O)N1CCN([C@@H]2CN(c3cc(N4CCC5(CC4)OCc4nccc(C)c45)nc(C(F)(F)F)n3)[C@@H]2C)CC1 [Compound 3-079, 1-(4-((2R,3R)-2-methyl-1-(6-(4-methyl-1′H,7H-spiro[furo[3,4-b]pyridine-5,4′-piperidin]-1′-yl)-2-(trifluoromethyl)-4-pyrimidinyl)-3-azetidinyl)-1-piperazinyl)-2-propen-1-one]
527	> 5000	1310	C=CC(=O)N1CCN(C2CN(c3cc(N4CCC5(CC4)O[C@H](C)C=C5Cl)nc(C(F)(F)F)c3C#N)C2)CC1 (single isomer, unassigned) [Compound 3-067-1]
828	> 5000	1990	C=CC(=O)N1CCN(C2CN(c3cc(N4CCC5(CC4)CC(Br)=NO5)nc(C(F)(F)F)c3C#N)C2)CC1 [Compound 3-017, 4-(3-(4-acryloylpiperazin-1-yl)-azetidin-1-yl)-6-(3-bromo-1-oxa-2.8-diazaspiro[4.5]dec-2-en-8-yl)-2-(trifluoromethyl)nicotinonitrile]
176	> 5000	172	C=CC(=O)N1CCN([C@@H]2CN(c3cc(N4CC[C@]5(C[C@H]4C)OCC(CF)n4ncc(C)c45)nc(C(F)F)n3)[C@@H]2C)CC1 (stereo partly drawn) [Compound 3-084, 1-(4-((2R,3R)-1-(2-(difluoromethyl)-6-((2R,4R)-7′-(fluoromethyl)-2,3′-dimethyl-6′,7′-dihydrospiro[piperidine-4,4′-pyrazolo[5,1-c][1,4]oxazin]-1-yl)pyrimidin-4-yl)-2-methylazetidin-3-yl)piperazin-1-yl)prop-2-en-1-one]
21	> 5000	182	C=CC(=O)N1CCN([C@@H]2CN(c3cc(N4CC[C@]5(C[C@H]4C)OCCn4ncc(C)c45)nc(C(F)(F)F)n3)[C@@H]2C)CC1 [Compound 3-077, 1-(4-((2R,3R)-1-(6-((2R,4R)-2,3′-dimethyl-6′,7′-dihydro-1H-spiro[piperidine-4,4′-pyrazolo[5,1-c][1,4]oxazin]-1-yl)-2-(trifluoromethyl)-4-pyrimidinyl)-2-methyl-3-azetidinyl)-1-piperazinyl)-2-propen-1-one]
69	> 5000	145	C=CC(=O)N1CCN([C@@H]2CN(c3cc(N4CCC5(CC4)OCC(COC)n4ncc(C)c45)nc(C(F)(F)F)n3)[C@@H]2C)CC1 (stereo partly drawn) [Compound 3-082, 1-(4-((2R,3R)-1-(6-(7′-(methoxymethyl)-3′-methyl-6′,7′-dihydrospiro[piperidine-4,4′-pyrazolo[5,1-c][1,4]oxazin]-1-yl)-2-(trifluoromethyl)pyrimidin-4-yl)-2-methylazetidin-3-yl)piperazin-1-yl)prop-2-en-1-one]
